Assay [1] deals with renal cancer cell lines. The assay can be described thus: Cell based assay, cell viability (CellTiter-Glo), renal cancer cell lines. Particulars: Homo sapiens; ACHN cells. How it is done:
(§1) Commercially available bladder cancer, prostate cancer, lung cancer, breast cancer, blood cancer, pancreatic cancer, colorectal cancer, brain cancer, neuroblastoma, melanoma, liver cancer, cervical carcinoma, ovarian cancer, renal cancer, and papilloma cell lines were each treated with trypsin-EDTA and cultured, followed by being seeded in each well of a 96 well plate. After 24 hours of treatment at constant temperature, the respective cells were treated with the candidate compound so that a final concentration became 0 to 2 μM. The treated cells were additionally cultured for 72 hours, and cell viability was measured by using an ATP detection method (CellTiter-Glo® Luminescent Cell Viability Assay, Promega).
On the technique in general: Cellular ATP, detected with luciferase, serves as a proxy for viable cell number.

The subject of assay [2] is blood cancer cell lines (e.g. HL-60, Jurkat, Raji, Ramos, Daudi, MOLT-4). Kind of assay: Cell based assay, cell viability (CellTiter-Glo), blood cancer cell lines. Particulars: Homo sapiens. How it is done: as §1
Assay [3] relates to cervical carcinoma cell lines. Kind of assay: Cell based assay, cell viability (CellTiter-Glo), cervical carcinoma cell lines. The note with it: Homo sapiens; HeLa cells. Here is the method:
(§2) Commercially available bladder cancer, prostate cancer, lung cancer, breast cancer, blood cancer, pancreatic cancer, colorectal cancer, brain cancer, neuroblastoma, melanoma, liver cancer, cervical carcinoma, ovarian cancer, renal cancer, and papilloma cell lines were each treated with trypsin-EDTA and cultured, followed by being seeded in each well of a 96 well plate. […] The treated cells were additionally cultured for 72 hours, and cell viability was measured by using an ATP detection method (CellTiter-Glo® Luminescent Cell Viability Assay, Promega).

For assay [4], the system named is pancreatic cancer cell lines (e.g. MIA PaCa-2). Kind of assay: Cell based assay, cell viability (CellTiter-Glo), pancreatic cancer cell lines. The note with it: Homo sapiens. How it is done:
as §1

Assay [5] deals with brain cancer cell lines. The assay can be described thus: Cell based assay, cell viability (CellTiter-Glo), brain cancer cell lines. The note with it: Homo sapiens. Here is the method: as §2
The mark [6] stands for this setting: MV4-11, blood cancer cell line MV-4-11, 72 hours, read-out: IC50, MV-4-11.
[7] abbreviates: blood cancer cell line Daudi, 72 hours, read-out: IC50, Daudi.
The mark [8] stands for this setting: blood cancer cell line HL-60, 72 hours, read-out: IC50, HL-60.
Setting [9] is: blood cancer cell line Jurkat, 72 hours, read-out: IC50, Jurkat.
Where [10] appears, read: blood cancer cell line MOLT-4, 72 hours, read-out: IC50, MOLT-4.
[11] abbreviates: blood cancer cell line Raji, 72 hours, read-out: IC50, Raji.
[12] abbreviates: blood cancer cell line Ramos (RA 1), 72 hours, read-out: IC50, Ramos (RA 1).
Setting [13] is: blood cancer cell line U-937, 72 hours, read-out: IC50, U-937.
Where [14] appears, read: pancreatic cancer cell line AsPC-1, 72 hours, read-out: IC50, AsPC-1.
Setting [15] is: pancreatic cancer cell line BxPC-3, 72 hours, read-out: IC50, BxPC-3.
The mark [16] stands for this setting: pancreatic cancer cell line CFPAC-1, 72 hours, read-out: IC50, CFPAC-1.
Setting [17] is: pancreatic cancer cell line Capan-1, 72 hours, read-out: IC50, Capan-1.
The mark [18] stands for this setting: pancreatic cancer cell line Capan-2, 72 hours, read-out: IC50, Capan-2.
[19] abbreviates: pancreatic cancer cell line MIA PaCa-2, 72 hours, read-out: IC50, MIA PaCa-2.
Setting [20] is: pancreatic cancer cell line PANC-1, 72 hours, read-out: IC50, PANC-1.
Where [21] appears, read: U138-MG, U-138 MG cell line, read-out: IC50, Brain cancer cell line U-138 MG.
The mark [22] stands for this setting: T98G cell line, read-out: IC50, Brain cancer cell line T98G.
Where [23] appears, read: U-251 MG cell line, read-out: IC50, Brain cancer cell line U-251 MG.

Molecules are shown by their SMILES. Read-outs that look alike come from different tables or passages of the source.

Turning to `CC(=O)c1c([S+](C)[O-])[nH]c2c(Br)ccc(Cl)c2c1=O` (stereo not shown) [Compound 1, 3-acetyl-8-bromo-5-chloro-2-(methylsulfinyl)quinolin-4(1H)-one], the IC50 (commonly the concentration needed to halve the response being measured) in assay [1] is above 2000 nM; in assay [2] (setting [6]) it was 1390 nM; in assay [2] (setting [7]) it was above 2000 nM; in assay [2] (setting [8]), 1720 nM; in assay [2] (setting [9]) it was above 2000 nM; in assay [2] (setting [10]), 1850 nM. In addition, the IC50 was above 2000 nM in assay [2] (setting [11]); above 2000 nM in assay [2] (setting [12]); above 2000 nM in assay [2] (setting [13]); above 10000 nM in assay [3]; above 2000 nM in assay [4] (setting [14]); above 2000 nM in assay [4] (setting [15]). Further, the half-inhibitory concentration (IC50) in assay [4] (setting [16]) is above 10000 nM; in assay [4] (setting [17]), above 2000 nM; in assay [4] (setting [18]), above 2000 nM; in assay [4] (setting [19]), 1590 nM; in assay [4] (setting [20]), above 2000 nM; in assay [5] (setting [21]), above 2000 nM. For the same molecule, the IC50 in assay [5] (setting [22]) is above 10000 nM; in assay [5] (setting [23]), above 2000 nM.

Turning to `CSc1[nH]c2c(Br)ccc(Cl)c2c(=O)c1C(C)=O` [Compound 2, 3-acetyl-8-bromo-5-chloro-2-(methylthio)quinolin-4(1H)-one], the IC50 in assay [1], in assay [2] (setting [6]), in assay [2] (setting [7]), in assay [2] (setting [8]), in assay [2] (setting [9]) and in assay [2] (setting [10]) was above 2000 nM in each case. The IC50 is above 2000 nM in assay [2] (setting [11]); above 2000 nM in assay [2] (setting [12]); above 2000 nM in assay [2] (setting [13]); above 10000 nM in assay [3]; above 2000 nM in assay [4] (setting [14]); above 2000 nM in assay [4] (setting [15]). In addition, the IC50 was above 10000 nM in assay [4] (setting [16]); above 2000 nM in assay [4] (setting [17]); above 2000 nM in assay [4] (setting [18]); above 2000 nM in assay [4] (setting [19]); above 2000 nM in assay [4] (setting [20]); above 10000 nM in assay [5] (setting [21]). The IC50 is above 10000 nM in assay [5] (setting [22]) and above 2000 nM in assay [5] (setting [23]).

Consider `CC(=O)c1c(SCc2ccccc2)[nH]c2c(Br)ccc(Cl)c2c1=O` [Compound 3, 3-acetyl-2-(benzylthio)-8-bromo-5-chloroquinolin-4(1H)-one], for which the IC50 in assay [1], in assay [2] (setting [6]), in assay [2] (setting [7]), in assay [2] (setting [8]), in assay [2] (setting [9]) and in assay [2] (setting [10]) was above 2000 nM in each case. The IC50 is above 2000 nM in assay [2] (setting [11]); above 2000 nM in assay [2] (setting [12]); above 2000 nM in assay [2] (setting [13]); above 10000 nM in assay [3]; above 2000 nM in assay [4] (setting [14]); above 2000 nM in assay [4] (setting [15]). Further, the IC50 was above 10000 nM in assay [4] (setting [16]); above 2000 nM in assay [4] (setting [17]); above 2000 nM in assay [4] (setting [18]); above 2000 nM in assay [4] (setting [19]); above 2000 nM in assay [4] (setting [20]); above 10000 nM in assay [5] (setting [21]). In addition, the IC50 was above 10000 nM in assay [5] (setting [22]) and above 2000 nM in assay [5] (setting [23]).

In the case of `CC(=O)c1c([S+]([O-])Cc2ccccc2)nc2c(Br)ccc(Cl)c2c1O` (stereo not shown) [Compound 4], the IC50 was above 2000 nM in assay [1]; 1610 nM in assay [2] (setting [6]); above 2000 nM in assay [2] (setting [7]); 1980 nM in assay [2] (setting [8]); 1070 nM in assay [2] (setting [9]); 1370 nM in assay [2] (setting [10]). The IC50 in assay [2] (setting [11]) is 1150 nM; in assay [2] (setting [12]), 1760 nM; in assay [2] (setting [13]), 1240 nM; in assay [3] it was above 10000 nM; in assay [4] (setting [14]), above 2000 nM; in assay [4] (setting [15]), above 2000 nM. In addition, the IC50 was above 10000 nM in assay [4] (setting [16]); above 2000 nM in assay [4] (setting [17]); above 2000 nM in assay [4] (setting [18]); 1340 nM in assay [4] (setting [19]); above 2000 nM in assay [4] (setting [20]); 1810 nM in assay [5] (setting [21]). The values for the IC50 in assay [5] (setting [22]) and in assay [5] (setting [23]) were above 10000 nM and 1220 nM, respectively.

With `CSc1c(C(C)=O)c(=O)c2c(Cl)ccc(Br)c2n1C` [Compound 5, 3-acetyl-8-bromo-5-chloro-1-methyl-2-(methylthio)quinolin-4(1H)-one], the IC50 in assay [1], in assay [2] (setting [6]), in assay [2] (setting [7]), in assay [2] (setting [8]), in assay [2] (setting [9]) and in assay [2] (setting [10]) was above 2000 nM each time. Moreover, the IC50 is above 2000 nM in assay [2] (setting [11]); above 2000 nM in assay [2] (setting [12]); above 2000 nM in assay [2] (setting [13]); above 10000 nM in assay [3]; above 2000 nM in assay [4] (setting [14]); above 2000 nM in assay [4] (setting [15]). Further, the IC50 in assay [4] (setting [16]) was above 10000 nM; in assay [4] (setting [17]), above 2000 nM; in assay [4] (setting [18]), above 2000 nM; in assay [4] (setting [19]), above 2000 nM; in assay [4] (setting [20]), above 2000 nM; in assay [5] (setting [21]) it was above 10000 nM. Further, the IC50 was above 10000 nM in assay [5] (setting [22]) and above 2000 nM in assay [5] (setting [23]).

The values are drawn from patent publication US11464770B2, “Anticancer pharmaceutical composition” (NATIONAL CANCER CENTER, priority 2016, dated 2022).
